According to patent US12678488B2, “Batch management method for improving farrowing rate or number of piglets born alive in swine” (priority 2024, dated 2026):
“Also recorded” adds a separate entry of the source. Marks after values point to notes of the source that are not given here.

What was measured:
ICR female mice = test: Mouse batch farrowing with FTAI model: embryo implantation number, embryo spacing, number born alive; assay type: in vivo; settings: for embryo spacing upon embryo implantation: compared with batch farrowing model group
Procedure: 6-8-week-old ICR female mice acclimatized to the laboratory mouse house environment and in a good condition were selected and divided into a batch farrowing with FTAI model group, a batch farrowing with FTAI+low-dose model group, and a batch farrowing with FTAI+high-dose model group, and 10IU PMSG was injected at 17:00 pm. At 6-8 hours after a single injection of PMSG to the batch farrowing with FTAI+low-dose model group and the batch farrowing with FTAI+high-dose model group, respectively, the groups were supplemented with a low dose of 1-[bis(4-cyanophenyl)methyl]-1,2,4-triazole (10 μg/kg·BW) and a high dose of 1-[bis(4-cyanophenyl)methyl]-1,2,4-triazole (50 μg/kg·BW), respectively, and at 46-48 hours after the injection of PMSG, the groups were then injected with prepared 10IU GnRH and then put into a breeding male mouse cage. At 7:00-9:00 the next morning, vaginal plugs were examined, and this day was recorded as day 1 (D1) of pregnancy. In the afternoon of day 5 (D5) of pregnancy, 0.4 ml of 1% Chicago blue-normal saline solution was injected into model mice at the caudal vein, and after 3 minutes of systemic circulation, the mice were sacrificed by means of cervical dislocation, the abdominal cavity was immediately cut open, and the abdominal aorta was cut for bleeding. Then, uteri and ovaries were removed with surgical ophthalmic scissors, immersed in physiological saline for washing, and then put into a 4% paraformaldehyde fixation solution for 5 minutes of morphological fixation. Blue dots on the uterus were recorded as embryo implantation sites, the number of implantation sites was counted, and patterns of embryo spacing in different groups were drawn.
For some of the mice treated above, no intermediate test was done, and after the mice gave birth, the number born alive in each group was counted.

[1] = test system: Landrace x Large White binary sows; test: Pregnancy, farrowing rate, litter size and piglet index of gilts in batch farrowing with FTAI (Example 3); assay type: in vivo, pigs
Procedure: The term “farrowing rate”, as used herein, was calculated as the percentage of the number of farrowed sows divided by the number of mated gilts and sows.
For example, in the case of a certain batch of sows, the farrowing rate=the number of farrowing sows/the number of mated gilts and sows×100%.
The term “Piglet Index (PI)”, as used herein, refers to the total number of live piglets born per 100 gilts or sows that have been naturally mated or artificially inseminated. The calculation method is the average number of born alive per litter multiplied by the farrowing rate and then multiplied by the total gilts or sows (100).
The breed of the gilts used in this example was Landrace x Large White binary sows, the reserve sows were randomly divided into the following 4 groups, and the treatment method for each group was as follows:
batch farrowing with FTAI: the sows were fed with an altrenogest oral solution at 20 mg/gilt at the same time every day, for 18 days; PMSG at 1000 IU/gilt was injected intramuscularly 42 h after the last feeding with altrenogest, GnRH at 100 μg/gilt was further injected intramuscularly 80 h after the intramuscular injection of PMSG, a first timed insemination was performed 24 h after the injection of GnRH, and a second timed insemination was performed after 24 h.
Treatment group 1 (batch farrowing with FTAI, with supplementing with 1-[bis(4-cyanophenyl)methyl]-1,2,4-triazole (12 μg/kg·BW, orally once)): The hormone treatment and mating schemes for gilts were the same as those for gilts in the batch farrowing with FTAI. The gilts were administered orally once with 1-[bis(4-cyanophenyl)methyl]-1,2,4-triazole at 12 μg/kg·BW 8 h after the injection of PMSG.
Treatment group 2 (batch farrowing with FTAI, with supplementing with 1-[bis (4-cyanophenyl)methyl]-1,2,4-triazole (12 μg/kg·BW, orally twice)): The hormone treatment and mating schemes for gilts were the same as those for gilts in the batch farrowing with FTAI. The gilts were administered orally once with 1-[bis(4-cyanophenyl)methyl]-1,2,4-triazole at 12 μg/kg·BW 8 h after the injection of PMSG, and then orally once with 1-[bis(4-cyanophenyl)methyl]-1,2,4-triazole at 12 μg/kg·BW after another 24 h.
Treatment group 3 (batch farrowing with FTAI, supplemented with 1-[bis(4-cyanophenyl)methyl]-1,2,4-triazole (20 μg/kg·BW, orally in a single dose)): The hormone treatment and mating schemes for gilts were the same as those for gilts in the batch farrowing with FTAI. The gilts were administered orally once with 1-[bis(4-cyanophenyl)methyl]-1,2,4-triazole at 20 μg/kg·BW 8 h after the injection of PMSG.
The farrowing rate and piglet index of sows in the different treatment groups were calculated as follows:
wherein Piglet Index (PI), a comprehensive index to measure the overall reproductive performance of a sow population at present in production, refers to the number born alive from every 100 gilts or sows, who have undergone natural mating or artificial insemination.

[2] = low dose 10 μg/kg·BW, compared with batch farrowing with FTAI model group
[3] = Example 3, low-dose (treatment groups 1, 2, and 3), compared with batch farrowing with FTAI
[4] = Example 3, treatment group 1 (12 μg/kg·BW orally once), compared with batch farrowing with FTAI
[5] = Example 3, treatment groups 2 and 3
[6] = Example 3 Treatment group 1: 12 μg/kg·BW orally once, gilts
[7] = Example 3 Treatment group 2: 12 μg/kg·BW orally twice, 24 h apart, gilts
[8] = Example 3 Treatment group 3: 20 μg/kg·BW orally in a single dose, gilts

In the case of `N#Cc1ccc(C(c2ccc(C#N)cc2)n2cncn2)cc1` [1-[bis(4-cyanophenyl)methyl]-1,2,4-triazole], the “embryo spacing upon embryo implantation” value (ICR female mice; high dose 50 μg/kg·BW) is reported as “no effect on increasing the embryo spacing; also recorded: could not alleviate the overcrowding of embryos”, the number born alive (ICR female mice; high dose 50 μg/kg·BW, compared with batch farrowing with FTAI model group) is reported as “reduced number born alive; also recorded: decreased number born alive” and the “embryo spacing upon embryo implantation” value (ICR female mice; low dose 10 μg/kg·BW) is reported as “increased embryo spacing; also recorded: increase the spacing between embryos”. For the same molecule, the embryo implantation number (ICR female mice; [2]) was “no significant effect; also recorded: no significant difference”, the number born alive (ICR female mice; [2]) was “significantly increase the number born alive” and the estrus rate ([1]; Example 3, 20 μg/kg·BW group compared with 12 μg/kg·BW group) was “slightly lower”. For the same molecule, the Piglet index [1, 3] was “significantly increased”, the farrowing rate [1, 3] was “significantly increased” and the pregnancy rate [1, 3] was “significantly increased”. The Healthy litter size [1, 4] was “significantly higher”, the number born alive [1, 4] was “significantly higher” and the Healthy litter size [1, 5] was “increasing trend”. The number born alive [1, 5] was “increasing trend”, the estrus rate ([1]; Example 3, treatment groups with different doses, compared with batch farrowing with FTAI) was “no significant difference” and the “Delivery rate (%)” value [1, 6] was 88.00^b %. For the same molecule, the “Estrus rate (%)” value [1, 6] was 92.00%, the Healthy litter size [1, 6] was 12.12 ± 0.32^b and the Live litter size [1, 6] was 12.44 ± 0.30^b. The Piglet index [1, 6] was 1094, the “Pregnancy rate (%)” value [1, 6] was 92.00^b % and the “Stillborn + mummy” value [1, 6] was 1.80 ± 0.22. The “Total number born litter size” value [1, 6] was 13.96 ± 0.30, the Weak litter [1, 6] was 0.24 ± 0.10 and the “Delivery rate (%)” value [1, 7] was 83.33^b %. For the same molecule, the “Estrus rate (%)” value [1, 7] was 93.75%, the Healthy litter size [1, 7] was 11.72 ± 0.43^a and the Live litter size [1, 7] was 12.00 ± 0.45^a. The Piglet index [1, 7] was 1000, the “Pregnancy rate (%)” value [1, 7] was 95.83^b % and the “Stillborn + mummy” value [1, 7] was 1.56 ± 0.16. For the same molecule, the “Total number born litter size” value [1, 7] was 13.76 ± 0.62, the Weak litter [1, 7] was 0.28 ± 0.09 and the “Delivery rate (%)” value [1, 8] was 81.48^b %. The “Estrus rate (%)” value [1, 8] was 88.89%, the Healthy litter size [1, 8] was 11.76 ± 0.37^a and the Live litter size [1, 8] was 12.04 ± 0.42^a. For the same molecule, the Piglet index [1, 8] was 981, the “Pregnancy rate (%)” value [1, 8] was 85.19^b % and the “Stillborn + mummy” value [1, 8] was 1.88 ± 0.39. For the same molecule, the “Total number born litter size” value [1, 8] was 14.04 ± 0.53, the Weak litter [1, 8] was 0.40 ± 0.10 and the “live piglets (weaned piglets) increased by every 100 gilts” value ([1]; per 100 gilts, method of the disclosure versus batch farrowing with FTAI) was 190 live piglets.
